According to patent US9399675B2, “Methods and compositions for diagnosing Alzheimer's disease and age-related macular degeneration” (The Board of Regents of the University of Oklahoma, priority 2007, dated 2016):

Legend:
HUVECs [1] = assay: Flow cytometry of cell associated CAP37 in HUVECs; assay type: cell-based, human; conditions: 10 ng/ml TNFα, permeabilized HUVECs
Experimental: FIG. 6: Flow cytometric analysis of cell associated CAP37 in HUVECs. HUVECs were incubated 18 h in the absence (unt) or presence of 10 ng/ml TNFα (TNFα), permeabilized and labeled with antisera to human CAP37 or normal serum control. Cells were permeabilized to determine intracellular levels of CAP37. A representative histogram from two independent experiments. The shift due to FITC-staining indicates increased expression of CAP37 in TNFα stimulated cells. Also indicated is a low level of constitutive CAP37 expression (unt).
HUVECs that were serum starved for 6 h were incubated in the absence or presence of 10 ng/ml TNFα for 10 h and 18 h. Permeabilized and non-permeabilized cells were fixed and stained essentially as described by Gräbner (18). The cells were first blocked with 4% normal donkey serum (JACKSON), then incubated at 4° C. with rabbit anti-human CAP37 antisera (1:300), and followed by biotin-sp-donkey F(ab′)2 anti-rabbit IgG, (JACKSON, 1:200) at 4° C. For detection the cells were incubated with fluorescein (DTAF)-conjugated streptavidin (JACKSON) at 2 μg/ml at 4° C. Cells were analyzed by flow cytometry (FACSCALIBUR, BECTON DICKINSON, San Jose, Calif.). Unstained cells and cells stained with normal rabbit serum were included as controls.

HUVECs [2] = assay: ELISA of released CAP37 in supernatants of HUVEC cultures; assay type: cell-based, human; conditions: supernatants of treated HUVEC cultures
Source text: Flow cytometry confirmed the studies described in FIG. 5. TNFα treated cells that were permeabilized indicated up to a 5-fold increase of CAP37 expression over untreated cells (FIG. 6). […] To determine whether CAP37 is released from treated endothelial cells, ELISA was used to analyze supernatants from TNFα treated HUVEC cultures. Levels of released CAP37 from treated HUVECs were two-fold over untreated cells (data not shown). It was clear that the amount and proportion of CAP37 released from HUVECs was in general much less than the amount and proportion of CAP37 released from PMN (6). Almost 90% of total CAP37 is released from PMN following phagocytosis (6).

[3] = tested on: Human neuronal cells (ATCC, HCN-1A); assay: Dot blot of released CAP37 in supernatants of human neuronal cells; assay type: cell-based; conditions: 75 μg/ml, 12 hrs, HCN-1A neurons
Experimental: FIG. 10: Dot blot analysis of supernatants from human neuronal cells in vitro with anti-CAP37 antiserum. Top row (from left to right) consists of CAP37 standards, at 20, 10, 5 and 2.5 μg/ml. 2nd row consists of doubling dilutions of supes from β-amyloid treated neuronal cultures. Row 3 consists of doubling dilutions of supes from untreated neuronal cultures. Row 4-no antigen/control.
The expression of CAP37 in neurons was further corroborated using in vitro culture. Human neuronal cells (ATCC, HCN-1A) were cultured according to specifications, transferred to serum-free medium for 6 hr and treated with β-amyloid fragment 1-42 (75 μg/ml), control peptide 40-1 (75 μg/ml), and media for 12 hrs. Supernatants were analyzed by dot blot for presence of released CAP37 (FIG. 10) and cells stained with anti-CAP37 antiserum (FIG. 11A) and normal mouse serum (FIG. 11B) to determine cell-associated CAP37.

In the case of TNFα, the “increase of CAP37 expression over untreated cells” value (HUVECs [1]) is reported as ≤ 5 fold and the “levels of released CAP37 over untreated cells” value (HUVECs [2]) is reported as “two-fold”.

With “β-amyloid fragment 1-42: toxic 42-amino acid beta-amyloid peptide used to induce CAP37 in human neurons” the “concentration of released (secreted) CAP37 in supernatants” value [3] was “approximately 2.5 μg/ml”.
